Experimental data as given in patent US20260325511A1, “METHODS OF USE OF A LIPOSOMAL COMPOSITION COMPRISING AN ATR INHIBITOR” (Jazz Pharmaceuticals Therapeutics, Inc., priority 2023, published 2026).

What was measured:
Format in all cases: in vivo, mouse
CRC Colo205 [1] = assay: Tumor efficacy study of liposomal ATR inhibitors + irinotecan, CRC Colo205 model (Example 3)
Method: Tumor efficacy studies were used to compare the efficacy of ATR inhibitors (Compounds A and C) in liposomal formulations in combination with irinotecan against irinotecan as a single agent in CRC Colo205 model.
(§1) Subcutaneous tumor models were initiated on 6-8 week old, female athymic nude mice. A cell suspension containing 5e6/100 μL CRC Colo205 cells in 1:1 PBS: Matrigel was subcutaneously injected into the hind flank of […] mice. Tumors were measured three times a week by digital caliper and reported as volume, calculated as V=π×1×w∧2 wherein 1 and w denote the longest and shortest tumor diameter respectively. Engrafted mice were then randomized into cohorts for treatment at an average tumor size of 80 mm^3.
(§2) Mice were organized into appropriate groups consisting of control (empty vehicle) and treatment groups including free irinotecan, irinotecan in combination with liposomal Compound A or liposomal Compound C, or irinotecan and berzosertib. Mice were administered free drug orally, and injected intravenously for liposomal compounds, with the required volume of sample to administer the prescribed dose to the animals based on individual mouse weights on dosing days. Animals were weighed and monitored for survival and in-life observations were collected at the time of weight measurement. Mice were monitored individually to endpoint which was either an individual tumor weight of 2000 mm^3 or other defined risk factors, whichever came first.
Animal study groups are disclosed in Table 2 (n=8 per group). Irinotecan was administered at 50 mg/kg via IP in a liposomal-free composition, once a week. Liposomal ATR inhibitors were administered at either 20 mg/kg (Group7) or 40 mg/kg (Groups 3, 5, 6, 8-10) via IV every other day. Berzosertib, clinical benchmark, was administered 5 consecutive days with 2 days off schedule. Last dose of any therapeutically active agent was administered on day 33.
Table 3 summarizes the tumor growth inhibition (TGI %) compared to the vehicle (Group 2) and tumor growth dynamic (TGD) compared to irinotecan single agent ([…]).

CRC Colo205 [2] = assay: Dosing schedule study, once a week, efficacy similar to Example 3 (Example 4A); conditions: vs vehicle; day 28 from inoculation (day 14 from start of dosing); irinotecan 50 mg/kg IP
[3] = tested on: colorectal carcinoma (CRC) model (Colo205); assay: Efficacy in colorectal cancer model Colo205 (Example 5); conditions: Lipo-G Comp. A 10-40 mg/kg IV QW or irinotecan 50 mg/kg IP QW
Method: as §1
as §2, with “Mice were administered free drug orally, and injected intravenously for liposomal compounds, with the required volume of sample to administer the prescribed dose to the animals based on individual mouse weights on dosing days.” left out
An efficacy study similar to those described in Example 3 above, was repeated where liposomal ATR inhibitors (Compounds A) were dosed once a week in a colorectal carcinoma (CRC) model (Colo205). Animal study groups are disclosed in Table 7 (n=8 per group)

CRC Colo205 [4] = assay: Dosing schedule study, efficacy similar to Example 3 (Example 4B); design: dose or concentration left out as unconfirmed; conditions: vs vehicle; day 44 from inoculation (day 12 from start of measurements)
Method: as §1
as §2, with “Mice were administered free drug orally, and injected intravenously for liposomal compounds, with the required volume of sample to administer the prescribed dose to the animals based on individual mouse weights on dosing days.” left out
Efficacy study similar to those described in Example 3 were also repeated where liposomal ATR inhibitors (Compounds A, C, or berzosertib) were dosed once a week or three times a week. Animal study groups are disclosed in Table 5B (n=8 per group). […]

[5] = tested on: non-small-cell lung cancer model (CTG-0828 PDX); assay: Efficacy in NSCLC model CTG-0828 PDX (Example 7)
Method: An efficacy study similar to those described in Example 3 above, was repeated where liposomal ATR inhibitor (Compounds A) and/or irinotecan were dosed at 50 mg/kg once a week in a non-small-cell lung cancer model (CTG-0828 PDX) for 5 weeks (QWx5) and compared to combinations of liposomal ATR inhibitor (Compounds A) and irinotecan. Animal study groups are disclosed in Table 10 (n=8 per group).

[6] = irinotecan 50 mg/kg IP QW (reference)

For `CCc1c2c(nc3ccc(OC(=O)N4CCC(N5CCCCC5)CC4)cc13)-c1cc3c(c(=O)n1C2)COC(=O)[C@]3(O)CC` [Irinotecan, irinotecan], the “TGI % (vs. vehicle) d 20” value (CRC Colo205 [1]; day 20, irinotecan 50 mg/kg IP QW) was 67%, the “TGI % (vs. vehicle) d 27” value (CRC Colo205 [1]; day 27, irinotecan 50 mg/kg IP QW) was 74% and the “CR % (complete response)” value (CRC Colo205 [1]; irinotecan 50 mg/kg IP QW) was 0%. The “ORR % (objective response rate)” value (CRC Colo205 [1]; irinotecan 50 mg/kg IP QW) was 0%, the “TGD (vs. single agent) %” value (CRC Colo205 [1]; [6]) was 0% and the “TGD (vs. single agent) Index” value (CRC Colo205 [1]; [6]) was 1.0. The “PR# (partial response), number of mice” value (CRC Colo205 [1]; irinotecan 50 mg/kg IP QW, n=8) was 0 mice, the “Total R (response), number of mice” value (CRC Colo205 [1]; irinotecan 50 mg/kg IP QW, n=8) was 0 mice and the “TGI % d 28 (d 14)” value (CRC Colo205 [2]) was 55.4%. For the same compound, the “activity as single agent” value [3] was “no/limited activity”, the “TGI % D 44(d 12)” value (CRC Colo205 [4]) was 0% and the “CR tumor regression rate” value ([5]; 50 mg/kg QWx5) was 0%. For the same compound, the “Tumor Growth Delay Index (TGDI)” value ([5]; 50 mg/kg QWx5) was 4.4, the “survival: median time to reach and exceed a tumor burden of 1 cm” value ([5]; 50 mg/kg QWx5, statistically significant improvement) was 100 days and the “Max % Tumor Grown Inhibition (TGI)” value ([5]; 50 mg/kg each agent, QWx5) was 91%. For the same compound, the “Regression * (% max)” value ([5]; 50 mg/kg each agent, QWx5) was 60% and the “TGDI (vs. vehicle)” value ([5]; 50 mg/kg each agent, QWx5) was 4.4.
